Source: patent US10995359B2, “Method for determining drug-sensitive human cell lines by analysis method in which measurement of activity of two types of protein kinase is used” (NITTO BOSEKI CO., LTD., priority 2015, dated 2021)

Legend:
Assay in all cases: Drug sensitivity assay (cell growth test), sulforhodamine B
Assay type in all cases: cell-based
DU4475 (IM) cells = settings: Homo sapiens, DU-4475, 72 hours, read-out: inhibition rate (%) by wortmannin, classification by grid analysis
Protocol: (§1) Cultured cells were treated with a MEK inhibitor and a PI3K inhibitor in various concentrations, and cell lines sensitive to MEK and PI3K were classified by calculating a cell growth inhibition rate. The culture method and analysis method are as follows.
(§2) Thirteen types of cells used in the present study, HCC38 (BL1), MDA-MB-231 (MSL), DU4475 (IM), HCC1187 (IM), HCC1143 (BL1), HCC1395 (LAR), HCC1937 (BL1), MDA-MB-453 (LAR), HCC70 (BL2), HS578T (MSL), MDA-MB-157 (MSL) and MDA-MB-468 (BL1), were obtained from American type culture collection (ATCC), and SUM185PE (LAR) was obtained from ASTERAND BIOSCIENCE. All the cells belong to triple negative breast cancer (TNBC), and it is known which of six types (BL1, BL2, M, MSL, IM and LAR) these belong to by an existing classification method.
(§3) All the cells were cultured in a medium designated from a source of supply, and 2 mM L-glutamine and 10% fetal bovine serum (FBS) were supplemented.
(§4) Each type of cells was seeded in a 96 well titer plate at 1×10^4 cells/well, and trametinib, an MEK inhibitor (Medchem Express; 0.08, 0.16, 0.31, 0.63, 1.25, 2.5, 5, 10 and 20 μM), and wortmannin, a PI3K inhibitor (Wako Pure Chemical Industries, Ltd.; 0.08, 0.16, 0.31, 0.63, 1.25, 2.5, 5, 10 and 20 μM) were dissolved in Dimethyl Sulfoxide [DMSO] (Wako Pure Chemical Industries, Ltd.) in various concentrations and treated. In addition, the effect on cell growth was examined at 72 hours after the inhibitor by sulforhodamine B assay (manufactured by SIGMA-ALDRICH), and 50 μL of sulforhodamine B solution was added to each well and cells were left at room temperature for an hour for staining. The staining degree of metabolically survival cells was examined by monitoring absorbance at a wavelength of 565 nm using a microtiter plate. The absorbance of cells which were not treated with trametinib and wortmannin (treated with DMSO) was used as a control and defined as 100% to calculate a cell growth inhibition rate.
(§5) The cell lines were classified into 4 types, cell lines sensitive to wortmannin (hereinafter, PA), cell lines sensitive to trametinib (hereinafter, MA), cell lines resistant to wortmannin and trametinib (hereinafter, R), and others (hereinafter, S). In the classification, first the inhibition rate of each drug was calculated in a concentration of 1 μM, and the inhibition rate (%) by trametinib and the inhibition rate (%) by wortmannin were plotted on the X axis and Y axis respectively on a graph.
(§6) The cell lines were classified into 4 types, cell lines sensitive to wortmannin (hereinafter, PA), cell lines sensitive to trametinib (hereinafter, MA), cell lines resistant to wortmannin and trametinib (hereinafter, R), and others (hereinafter, S). In the classification, first the inhibition rate of each drug was calculated in a concentration of 100 nM, and the inhibition rate (%) by trametinib and the inhibition rate (%) by wortmannin were plotted on the X axis and Y axis respectively on a graph.
as §5, with “10” for “1”, “graph. Using a 50% growth inhibition rate as an index of the inhibitive effect of a drug, cells were classified into 4 types by grid analysis.” for “graph.”

HCC1187 (IM) cells = settings: Homo sapiens, 72 hours, read-out: inhibition rate (%) by wortmannin, classification by grid analysis
Protocol: as §1, §2, §3, §4, §5, §6
as §5, with “10” for “1”, “graph. Using a 50% growth inhibition rate as an index of the inhibitive effect of a drug, cells were classified into 4 types by grid analysis.” for “graph.”

HCC1395 (LAR) cells = settings: Homo sapiens, 72 hours, read-out: inhibition rate (%) by wortmannin, classification by grid analysis
Protocol: as §1, §2, §3, §4, §5, §6
as §5, with “10” for “1”, “graph. Using a 50% growth inhibition rate as an index of the inhibitive effect of a drug, cells were classified into 4 types by grid analysis.” for “graph.”

HCC1937 (BL1) cells = settings: Homo sapiens, 72 hours, read-out: inhibition rate (%) by wortmannin, classification by grid analysis
Protocol: as §1, §2, §3, §4, §5, §6
as §5, with “10” for “1”, “graph. Using a 50% growth inhibition rate as an index of the inhibitive effect of a drug, cells were classified into 4 types by grid analysis.” for “graph.”

HCC38 (BL1) cells = settings: Homo sapiens, 72 hours, read-out: inhibition rate (%) by wortmannin, classification by grid analysis
Protocol: as §1, §2, §3, §4, §5, §6
as §5, with “10” for “1”, “graph. Using a 50% growth inhibition rate as an index of the inhibitive effect of a drug, cells were classified into 4 types by grid analysis.” for “graph.”

HCC70 (BL2) cells = settings: Homo sapiens, 72 hours, read-out: inhibition rate (%) by wortmannin, classification by grid analysis
Protocol: as §1, §2, §3, §4, §5, §6
as §5, with “10” for “1”, “graph. Using a 50% growth inhibition rate as an index of the inhibitive effect of a drug, cells were classified into 4 types by grid analysis.” for “graph.”

MDA-MB-157 (MSL) cells = settings: Homo sapiens, 72 hours, read-out: inhibition rate (%) by wortmannin, classification by grid analysis
Protocol: as §1, §2, §3, §4, §5, §6
as §5, with “10” for “1”, “graph. Using a 50% growth inhibition rate as an index of the inhibitive effect of a drug, cells were classified into 4 types by grid analysis.” for “graph.”

MDA-MB-453 (LAR) cells = settings: Homo sapiens, 72 hours, read-out: inhibition rate (%) by wortmannin, classification by grid analysis
Protocol: as §1, §2, §3, §4, §5, §6
as §5, with “10” for “1”, “graph. Using a 50% growth inhibition rate as an index of the inhibitive effect of a drug, cells were classified into 4 types by grid analysis.” for “graph.”

SUM185PE (LAR) cells = settings: Homo sapiens, 72 hours, read-out: inhibition rate (%) by wortmannin, classification by grid analysis
Protocol: as §1, §2, §3, §4, §5, §6
as §5, with “10” for “1”, “graph. Using a 50% growth inhibition rate as an index of the inhibitive effect of a drug, cells were classified into 4 types by grid analysis.” for “graph.”

Which results are given for `COC[C@H]1OC(=O)c2coc3c2[C@@]1(C)C1=C(C3=O)[C@@H]2CCC(=O)[C@@]2(C)C[C@H]1OC(C)=O` [wortmannin, Wortmannin]?
inhibition at 0.1 µM (DU4475 (IM) cells; DU4475, 100 nM, index 12.5% growth inhibition rate): < 12.5%; inhibition at 1 µM (DU4475 (IM) cells; DU4475, 1 μM, index 25% growth inhibition rate): < 25%; inhibition at 10 µM (DU4475 (IM) cells; DU4475, 10 μM, index 50% growth inhibition rate): < 50%; inhibition at 0.1 µM (HCC1187 (IM) cells; HCC1187, 100 nM, index 12.5% growth inhibition rate): < 12.5%; inhibition at 1 µM (HCC1187 (IM) cells; HCC1187, 1 μM, index 25% growth inhibition rate): < 25%; inhibition at 10 µM (HCC1187 (IM) cells; HCC1187, 10 μM, index 50% growth inhibition rate): < 50%; inhibition at 0.1 µM (HCC1395 (LAR) cells; HCC1395, 100 nM, index 12.5% growth inhibition rate): < 12.5%; inhibition at 1 µM (HCC1395 (LAR) cells; HCC1395, 1 μM, index 25% growth inhibition rate): < 25%; inhibition at 10 µM (HCC1395 (LAR) cells; HCC1395, 10 μM, index 50% growth inhibition rate): < 50%; inhibition at 0.1 µM (HCC1937 (BL1) cells; HCC1937, 100 nM, index 12.5% growth inhibition rate): < 12.5%; inhibition at 1 µM (HCC1937 (BL1) cells; HCC1937, 1 μM, index 25% growth inhibition rate): < 25%; inhibition at 10 µM (HCC1937 (BL1) cells; HCC1937, 10 μM, index 50% growth inhibition rate): < 50%; inhibition at 0.1 µM (HCC38 (BL1) cells; HCC38, 100 nM, index 12.5% growth inhibition rate): < 12.5%; inhibition at 1 µM (HCC38 (BL1) cells; HCC38, 1 μM, index 25% growth inhibition rate): < 25%; inhibition at 10 µM (HCC38 (BL1) cells; HCC38, 10 μM, index 50% growth inhibition rate): < 50%; inhibition at 0.1 µM (HCC70 (BL2) cells; HCC70, 100 nM, index 12.5% growth inhibition rate): > 12.5%; inhibition at 1 µM (HCC70 (BL2) cells; HCC70, 1 μM, index 25% growth inhibition rate): > 25%; inhibition at 10 µM (HCC70 (BL2) cells; HCC70, 10 μM, index 50% growth inhibition rate): > 50%; inhibition at 0.1 µM (MDA-MB-157 (MSL) cells; MDA-MB-157, 100 nM, index 12.5% growth inhibition rate): < 12.5%; inhibition at 1 µM (MDA-MB-157 (MSL) cells; MDA-MB-157, 1 μM, index 25% growth inhibition rate): < 25%; inhibition at 10 µM (MDA-MB-157 (MSL) cells; MDA-MB-157, 10 μM, index 50% growth inhibition rate): < 50%; inhibition at 0.1 µM (MDA-MB-453 (LAR) cells; MDA-MB-453, 100 nM, index 12.5% growth inhibition rate): > 12.5%; inhibition at 1 µM (MDA-MB-453 (LAR) cells; MDA-MB-453, 1 μM, index 25% growth inhibition rate): > 25%; inhibition at 10 µM (MDA-MB-453 (LAR) cells; MDA-MB-453, 10 μM, index 50% growth inhibition rate): > 50%; inhibition at 0.1 µM (SUM185PE (LAR) cells; 100 nM, index 12.5% growth inhibition rate): > 12.5%; inhibition at 1 µM (SUM185PE (LAR) cells; 1 μM, index 25% growth inhibition rate): > 25%; inhibition at 10 µM (SUM185PE (LAR) cells; 10 μM, index 50% growth inhibition rate): > 50%
